Measured values taken from ChEMBL document CHEMBL1201862, “PubChem BioAssay data set” (2004).
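Values below derive from 48-hour exposures of cells grown in 96-well plates, with endpoints linearly interpolated between the two concentrations bracketing the appropriate inhibition level. At the GI50, growth is halved.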 The source made the active and inactive calls. No stated cut-off is given here; in the data, active = GI50 up to about 1.1 µM and inactive = higher.

Legend:
Assay in all cases: NCI tumour cell line growth inhibition, 48 h
786-0 = test system: 786-0
A498 = test system: A498
A549 = test system: A549
ACHN = test system: ACHN
CAKI-1 = test system: CAKI-1
CCRF-CEM = test system: CCRF-CEM
COLO 205 = test system: COLO 205
DLD-1 = test system: DLD-1
DMS-114 = test system: DMS-114
DMS-273 = test system: DMS-273
EKVX = test system: EKVX
HCT-116 = test system: HCT-116
HCT-15 = test system: HCT-15
HL-60 = test system: HL-60
HOP-18 = test system: HOP-18
HOP-62 = test system: HOP-62
HOP-92 = test system: HOP-92
HT-29 = test system: HT-29
IGROV-1 = test system: IGROV-1
K562 = test system: K562
KM-20L2 = test system: KM-20L2
KM12 = test system: KM12
LOX IMVI = test system: LOX IMVI
LXFL 529 = test system: LXFL 529
M14 = test system: M14
M19-MEL = test system: M19-MEL
MOLT-4 = test system: MOLT-4
Malme-3M = test system: Malme-3M
NCI-H23 = test system: NCI-H23
NCI-H460 = test system: NCI-H460
NCI-H522 = test system: NCI-H522
OVCAR-3 = test system: OVCAR-3
OVCAR-4 = test system: OVCAR-4
OVCAR-5 = test system: OVCAR-5
OVCAR-8 = test system: OVCAR-8
RPMI-8226 = test system: RPMI-8226
SF-268 = test system: SF-268
SF-295 = test system: SF-295
SF-539 = test system: SF-539
SK-MEL-28 = test system: SK-MEL-28
SK-MEL-2 = test system: SK-MEL-2
SK-MEL-5 = test system: SK-MEL-5
SK-OV-3 = test system: SK-OV-3
SN12C = test system: SN12C
SNB-19 = test system: SNB-19
SNB-75 = test system: SNB-75
SNB-78 = test system: SNB-78
SR = test system: SR
SW-620 = test system: SW-620
TK-10 = test system: TK-10
U-251 = test system: U-251
UACC-257 = test system: UACC-257
UACC-62 = test system: UACC-62
UO-31 = test system: UO-31
HCC 2998 = test system: HCC 2998
MCF7 = test system: MCF7
NCI-H226 = test system: NCI-H226
NCI/ADR-RES = test system: NCI/ADR-RES
RXF 393 = test system: RXF 393

COc1ccc(N(C)CN(C)c2nc(N(C)C)nc(N(C)C)n2)cc1
GI50 (786-0): > 100 µM (inactive)
GI50 (A498): > 100 µM (inactive)
GI50 (A549): > 100 µM (inactive)
GI50 (ACHN): > 100 µM (inactive)
GI50 (CAKI-1): > 100 µM (inactive)
GI50 (CCRF-CEM): > 100 µM (inactive)
GI50 (COLO 205): > 100 µM (inactive)
GI50 (DLD-1): > 100 µM (inactive)
GI50 (DMS-114): > 100 µM (inactive)
GI50 (DMS-273): > 100 µM (inactive)
GI50 (EKVX): > 100 µM (inactive)
GI50 (HCT-116): > 100 µM (inactive)
GI50 (HCT-15): > 100 µM
GI50 (HL-60): > 100 µM (inactive)
GI50 (HOP-18): > 100 µM (inactive)
GI50 (HOP-62): > 100 µM (inactive)
GI50 (HOP-92): > 100 µM (inactive)
GI50 (HT-29): > 100 µM (inactive)
GI50 (IGROV-1): > 100 µM (inactive)
GI50 (K562): > 100 µM (inactive)
GI50 (KM-20L2): > 100 µM (inactive)
GI50 (KM12): > 100 µM (inactive)
GI50 (LOX IMVI): > 100 µM (inactive)
GI50 (LXFL 529): > 100 µM (inactive)
GI50 (M14): > 100 µM (inactive)
GI50 (M19-MEL): > 100 µM (inactive)
GI50 (MOLT-4): > 100 µM (inactive)
GI50 (Malme-3M): > 100 µM (inactive)
GI50 (NCI-H23): > 100 µM (inactive)
GI50 (NCI-H460): > 100 µM (inactive)
GI50 (NCI-H522): > 100 µM (inactive)
GI50 (OVCAR-3): > 100 µM (inactive)
GI50 (OVCAR-4): > 100 µM (inactive)
GI50 (OVCAR-5): > 100 µM (inactive)
GI50 (OVCAR-8): > 100 µM (inactive)
GI50 (RPMI-8226): > 100 µM (inactive)
GI50 (SF-268): > 100 µM (inactive)
GI50 (SF-295): > 100 µM (inactive)
GI50 (SF-539): > 100 µM (inactive)
GI50 (SK-MEL-28): > 100 µM (inactive)
GI50 (SK-MEL-2): > 100 µM (inactive)
GI50 (SK-MEL-5): > 100 µM (inactive)
GI50 (SK-OV-3): > 100 µM (inactive)
GI50 (SN12C): > 100 µM (inactive)
GI50 (SNB-19): > 100 µM (inactive)
GI50 (SNB-75): > 100 µM (inactive)
GI50 (SNB-78): > 100 µM (inactive)
GI50 (SR): > 100 µM (inactive)
GI50 (SW-620): > 100 µM (inactive)
GI50 (TK-10): > 100 µM (inactive)
GI50 (U-251): > 100 µM (inactive)
GI50 (UACC-257): > 100 µM (inactive)
GI50 (UACC-62): > 100 µM (inactive)
GI50 (UO-31): > 100 µM (inactive)

CC1=C2C3OC(=O)C(C)C3CCC2(C)C=C/C1=N\c1ccccc1 (stereo not given)
GI50 (A498): > 100 µM (inactive)
GI50 (A549): > 100 µM (inactive)
GI50 (CCRF-CEM): > 100 µM (inactive)
GI50 (COLO 205): > 100 µM (inactive)
GI50 (DLD-1): > 100 µM (inactive)
GI50 (DMS-114): > 100 µM (inactive)
GI50 (DMS-273): > 100 µM (inactive)
GI50 (EKVX): > 100 µM (inactive)
GI50 (HCC 2998): > 100 µM (inactive)
GI50 (HCT-116): > 100 µM (inactive)
GI50 (HCT-15): > 100 µM
GI50 (HL-60): > 100 µM (inactive)
GI50 (HOP-18): > 57.1 µM (inactive)
GI50 (HOP-62): > 100 µM (inactive)
GI50 (HOP-92): > 100 µM (inactive)
GI50 (HT-29): > 100 µM (inactive)
GI50 (IGROV-1): > 100 µM (inactive)
GI50 (K562): > 100 µM (inactive)
GI50 (KM-20L2): > 100 µM (inactive)
GI50 (KM12): > 100 µM (inactive)
GI50 (LOX IMVI): > 100 µM (inactive)
GI50 (M19-MEL): > 100 µM (inactive)
GI50 (MCF7): > 100 µM (inactive)
GI50 (MOLT-4): > 100 µM (inactive)
GI50 (Malme-3M): > 100 µM (inactive)
GI50 (NCI-H226): > 100 µM (inactive)
GI50 (NCI-H23): > 100 µM (inactive)
GI50 (NCI-H460): > 100 µM (inactive)
GI50 (NCI-H522): > 100 µM (inactive)
GI50 (NCI/ADR-RES): > 100 µM (inactive)
GI50 (OVCAR-3): > 100 µM (inactive)
GI50 (OVCAR-4): > 100 µM (inactive)
GI50 (OVCAR-5): > 100 µM (inactive)
GI50 (OVCAR-8): > 100 µM (inactive)
GI50 (RXF 393): > 100 µM (inactive)
GI50 (SF-268): > 100 µM (inactive)
GI50 (SF-295): > 100 µM (inactive)
GI50 (SF-539): > 100 µM (inactive)
GI50 (SK-MEL-28): > 100 µM (inactive)
GI50 (SK-MEL-2): > 100 µM (inactive)
GI50 (SK-MEL-5): > 100 µM (inactive)
GI50 (SK-OV-3): > 100 µM (inactive)
GI50 (SN12C): > 100 µM (inactive)
GI50 (SNB-19): > 100 µM (inactive)
GI50 (SNB-75): > 53.3 µM (inactive)
GI50 (SNB-78): > 100 µM (inactive)
GI50 (SW-620): > 100 µM (inactive)
GI50 (U-251): > 100 µM (inactive)
GI50 (UACC-257): > 100 µM (inactive)
GI50 (UACC-62): > 100 µM (inactive)
GI50 (UO-31): > 100 µM (inactive)
